Experimental data published in ChEMBL document CHEMBL1201862, “PubChem BioAssay data set” (2004).
Active and inactive are the calls of the source.

Columns and labels:
[1] = target: T1, High affinity choline transporter 1 (Homo sapiens, UniProt Q9GZV3); assay: human choline transporter potentiators, potency – cell-based, 10-point CRC, membrane potential dye, dose response (AID 602376); format: functional
T1 sequence (Q9GZV3 whole entry): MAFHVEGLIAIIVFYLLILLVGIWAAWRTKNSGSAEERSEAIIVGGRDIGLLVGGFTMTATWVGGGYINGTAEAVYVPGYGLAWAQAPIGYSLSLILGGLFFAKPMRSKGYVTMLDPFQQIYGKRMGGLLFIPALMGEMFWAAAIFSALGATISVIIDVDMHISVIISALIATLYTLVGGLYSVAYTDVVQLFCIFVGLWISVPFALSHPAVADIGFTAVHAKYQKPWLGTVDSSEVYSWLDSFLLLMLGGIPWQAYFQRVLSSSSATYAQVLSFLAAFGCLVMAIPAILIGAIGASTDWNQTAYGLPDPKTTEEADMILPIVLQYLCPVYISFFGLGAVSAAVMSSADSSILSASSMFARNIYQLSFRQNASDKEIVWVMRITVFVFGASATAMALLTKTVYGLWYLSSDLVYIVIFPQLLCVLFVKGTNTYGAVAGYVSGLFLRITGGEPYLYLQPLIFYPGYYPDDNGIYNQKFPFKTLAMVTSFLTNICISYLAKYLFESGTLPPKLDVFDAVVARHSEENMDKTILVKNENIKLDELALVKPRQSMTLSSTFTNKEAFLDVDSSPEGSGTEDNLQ

[2] = target: Potassium voltage-gated channel subfamily KQT member 2 (Rattus norvegicus, UniProt O88943); assay: blockers of KCNQ2 channel current – cell-based, automated electrophysiology, set II, rat KCNQ2, dose response (AID 588637); format: functional
[3] = NIH3T3 cell viability loss – ATP luminescence, mouse fibroblasts, counter-screen, dose response (AID 2010); format: functional, cell-based;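 also: cells exposed to compound for about 90 hours before reading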
[4] = Trypanosoma cruzi growth suppression in host cells – NIH3T3 host cells, beta-gal luminescence, confirmation (AID 2044); format: functional, cell-based;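 also: intracellular parasites grown in NIH/3T3 mouse fibroblasts as host cells; luminescent beta-galactosidase reporter signal from transgenic T. cruzi replicating inside host cells; inhibitors lower the luminescence signal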
[5] = target: T2, Rac GTPase-activating protein 1 (Homo sapiens, UniProt Q9H0H5); assay: blockers of MgcRacGAP-driven Rac1 GTP hydrolysis – biochemical, ADP Hunter fluorescence, primary and confirmatory, confirmation (AID 624330); format: functional
T2 sequence (Q9H0H5 whole entry): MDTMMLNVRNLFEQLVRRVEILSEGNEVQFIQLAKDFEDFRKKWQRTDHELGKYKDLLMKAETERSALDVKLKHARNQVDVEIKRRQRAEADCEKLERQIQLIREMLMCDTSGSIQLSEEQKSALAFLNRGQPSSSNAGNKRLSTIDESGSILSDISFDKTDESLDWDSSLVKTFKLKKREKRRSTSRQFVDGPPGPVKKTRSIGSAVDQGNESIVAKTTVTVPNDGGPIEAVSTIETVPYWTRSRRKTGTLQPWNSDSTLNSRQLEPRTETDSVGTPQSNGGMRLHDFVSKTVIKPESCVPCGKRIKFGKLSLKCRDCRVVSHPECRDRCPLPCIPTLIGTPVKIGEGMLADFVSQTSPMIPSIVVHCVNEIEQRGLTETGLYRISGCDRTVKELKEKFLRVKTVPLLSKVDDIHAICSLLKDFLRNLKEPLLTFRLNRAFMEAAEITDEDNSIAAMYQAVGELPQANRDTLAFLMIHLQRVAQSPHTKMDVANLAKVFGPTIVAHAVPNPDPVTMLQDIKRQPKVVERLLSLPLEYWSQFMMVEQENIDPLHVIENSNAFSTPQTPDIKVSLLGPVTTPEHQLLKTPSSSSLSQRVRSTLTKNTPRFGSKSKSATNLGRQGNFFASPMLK

[6] = viability loss in HeLa cells – cytotoxicity control for MgcRacGAP inhibitor project, dose response (AID 624300); format: functional
[7] = target: Mitochondrial peptide methionine sulfoxide reductase (Bos taurus, UniProt P54149); assay: Absorbance-based biochemical high throughput dose response assay for activators of Methionine sulfoxide reductase A (MsrA).; format: functional
[8] = target: T3, Tyrosyl-DNA phosphodiesterase 2 (Homo sapiens, UniProt O95551); assay: potency against TDP2 phosphodiesterase activity – biochemical, epi absorbance, IC50, dose response (AID 743297)
T3 sequence (O95551 whole entry): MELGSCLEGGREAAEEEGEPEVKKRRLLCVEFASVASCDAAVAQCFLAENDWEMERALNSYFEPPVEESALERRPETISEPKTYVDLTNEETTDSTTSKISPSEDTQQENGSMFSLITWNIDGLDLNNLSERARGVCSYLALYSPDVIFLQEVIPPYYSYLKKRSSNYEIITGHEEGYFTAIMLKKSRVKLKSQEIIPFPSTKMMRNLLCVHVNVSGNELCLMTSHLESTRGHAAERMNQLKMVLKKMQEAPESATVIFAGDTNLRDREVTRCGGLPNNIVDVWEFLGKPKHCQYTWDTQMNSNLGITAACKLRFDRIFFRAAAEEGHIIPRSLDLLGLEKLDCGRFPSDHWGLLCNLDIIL

[9] = target: T4, Sentrin-specific protease 8 (Homo sapiens, UniProt Q96LD8); assay: inhibition of human SENP8 cleavage activity – biochemical, luminescence, SAR follow-up (AID 504501); format: functional
T4 sequence (Q96LD8 whole entry): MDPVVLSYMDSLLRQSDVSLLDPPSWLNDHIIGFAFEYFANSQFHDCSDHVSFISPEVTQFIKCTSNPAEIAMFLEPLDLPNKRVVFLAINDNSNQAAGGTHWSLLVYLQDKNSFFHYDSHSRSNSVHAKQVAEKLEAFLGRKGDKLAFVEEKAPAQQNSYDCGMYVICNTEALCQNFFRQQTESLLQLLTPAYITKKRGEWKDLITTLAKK

[10] = target: T5, Sentrin-specific protease 6 (Homo sapiens, UniProt Q9GZR1); assay: inhibition of human SENP6 catalytic domain – biochemical, luminescence, set 2, SAR follow-up (AID 588598); format: functional
T5 sequence (Q9GZR1 whole entry): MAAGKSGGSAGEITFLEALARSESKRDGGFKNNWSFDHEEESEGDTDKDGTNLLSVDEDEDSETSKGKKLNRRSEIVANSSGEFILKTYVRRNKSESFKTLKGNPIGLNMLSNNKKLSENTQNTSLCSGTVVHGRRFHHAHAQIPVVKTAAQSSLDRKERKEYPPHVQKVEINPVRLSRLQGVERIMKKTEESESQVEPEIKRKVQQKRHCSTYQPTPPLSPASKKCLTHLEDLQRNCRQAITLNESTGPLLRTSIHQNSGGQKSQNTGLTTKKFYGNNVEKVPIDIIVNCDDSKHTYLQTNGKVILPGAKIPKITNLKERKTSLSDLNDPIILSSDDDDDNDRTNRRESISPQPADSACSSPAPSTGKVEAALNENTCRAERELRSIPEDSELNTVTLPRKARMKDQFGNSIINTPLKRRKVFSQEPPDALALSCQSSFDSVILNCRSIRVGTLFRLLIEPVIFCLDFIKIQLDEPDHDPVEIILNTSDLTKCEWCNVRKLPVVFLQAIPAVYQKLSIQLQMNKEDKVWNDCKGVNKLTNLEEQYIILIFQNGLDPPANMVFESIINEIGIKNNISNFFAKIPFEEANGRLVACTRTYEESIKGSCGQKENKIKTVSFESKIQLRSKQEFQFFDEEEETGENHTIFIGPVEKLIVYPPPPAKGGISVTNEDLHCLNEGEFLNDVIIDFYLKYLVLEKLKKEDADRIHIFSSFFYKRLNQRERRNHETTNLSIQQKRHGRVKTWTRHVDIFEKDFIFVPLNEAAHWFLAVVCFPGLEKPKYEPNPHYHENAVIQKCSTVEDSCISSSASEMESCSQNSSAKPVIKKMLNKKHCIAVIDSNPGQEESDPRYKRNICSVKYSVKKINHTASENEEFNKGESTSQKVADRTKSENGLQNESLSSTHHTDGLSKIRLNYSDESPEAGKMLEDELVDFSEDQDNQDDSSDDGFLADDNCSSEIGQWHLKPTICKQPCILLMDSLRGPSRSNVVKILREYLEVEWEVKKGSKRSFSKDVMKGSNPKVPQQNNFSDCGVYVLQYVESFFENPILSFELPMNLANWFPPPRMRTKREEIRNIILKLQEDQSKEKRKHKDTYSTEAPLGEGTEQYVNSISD

Caspase-3 [11] = target: T6, Caspase-3 (Homo sapiens, UniProt P42574); assay: SAR Analysis of small molecule inhibitors of Sentrin-specific proteases (SENPs) using a Caspase-3 Selectivity assay. [Related pubchem assays (depositor defined):AID2540, AID2599, AID434973, AID489001]; format: functional
T6 sequence (P42574 whole entry): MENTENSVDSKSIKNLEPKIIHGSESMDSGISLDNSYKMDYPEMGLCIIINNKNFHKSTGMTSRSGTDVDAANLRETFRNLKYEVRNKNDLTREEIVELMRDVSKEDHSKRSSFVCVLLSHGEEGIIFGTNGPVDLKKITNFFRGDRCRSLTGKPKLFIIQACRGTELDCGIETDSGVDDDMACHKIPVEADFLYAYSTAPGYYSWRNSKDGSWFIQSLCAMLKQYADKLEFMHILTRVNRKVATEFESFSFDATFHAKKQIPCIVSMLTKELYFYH

[12] = target: T5, Sentrin-specific protease 6; assay: SAR Analysis of small molecule inhibitors of Sentrin-specific protease 6 (SENP6) using a Luminescent assay. [Related pubchem assays (depositor defined):AID2582, AID2599]; format: functional
[13] = target: T7, Sentrin-specific protease 7 (Homo sapiens, UniProt Q9BQF6); assay: inhibition of human SENP7 cleavage activity – biochemical, luminescence, SAR follow-up (AID 504497); format: functional
T7 sequence (Q9BQF6 whole entry): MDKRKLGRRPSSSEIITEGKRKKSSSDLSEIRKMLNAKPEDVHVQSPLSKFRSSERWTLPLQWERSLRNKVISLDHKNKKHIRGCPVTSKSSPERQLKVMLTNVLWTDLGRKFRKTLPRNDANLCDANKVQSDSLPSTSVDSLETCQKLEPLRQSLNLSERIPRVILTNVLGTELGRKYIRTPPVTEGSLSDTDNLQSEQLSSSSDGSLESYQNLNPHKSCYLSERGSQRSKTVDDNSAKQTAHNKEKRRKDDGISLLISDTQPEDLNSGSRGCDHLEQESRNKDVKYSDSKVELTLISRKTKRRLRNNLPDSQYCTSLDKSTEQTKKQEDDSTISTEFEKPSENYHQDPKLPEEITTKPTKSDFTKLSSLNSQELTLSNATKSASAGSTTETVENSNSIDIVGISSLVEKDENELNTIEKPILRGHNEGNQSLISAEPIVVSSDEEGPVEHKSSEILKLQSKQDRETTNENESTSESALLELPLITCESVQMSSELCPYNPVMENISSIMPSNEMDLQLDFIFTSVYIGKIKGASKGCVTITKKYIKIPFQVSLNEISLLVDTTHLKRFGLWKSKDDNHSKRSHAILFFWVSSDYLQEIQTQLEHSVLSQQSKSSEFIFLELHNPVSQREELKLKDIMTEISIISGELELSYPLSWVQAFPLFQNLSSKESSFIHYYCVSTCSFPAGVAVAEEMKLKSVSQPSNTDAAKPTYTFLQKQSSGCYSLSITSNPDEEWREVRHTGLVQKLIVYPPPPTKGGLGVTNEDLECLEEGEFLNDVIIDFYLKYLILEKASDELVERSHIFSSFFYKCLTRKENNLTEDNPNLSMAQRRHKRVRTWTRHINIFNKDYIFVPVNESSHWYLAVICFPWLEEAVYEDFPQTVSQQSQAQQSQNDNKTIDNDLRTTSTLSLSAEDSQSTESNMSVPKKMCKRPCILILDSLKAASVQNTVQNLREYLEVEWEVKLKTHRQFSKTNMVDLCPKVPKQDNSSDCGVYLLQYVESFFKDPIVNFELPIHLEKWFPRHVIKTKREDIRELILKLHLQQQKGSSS

[14] = target: T7, Sentrin-specific protease 7; assay: inhibition of human SENP7 cleavage activity – biochemical, luminescence, set 2, SAR follow-up (AID 588600); format: functional
Caspase-3 [15] = target: T6, Caspase-3; assay: inhibition of recombinant caspase-3 activity – biochemical, luminescence, set 2, selectivity assay for SENP protease inhibitor project, SAR follow-up (AID 588599); format: functional
[16] = target: T4, Sentrin-specific protease 8; assay: inhibition of sentrin protease 8 – biochemical, luminescence, set 2, SAR follow-up (AID 588601); format: functional
[17] = target: Melanin-concentrating hormone receptor 1 (Homo sapiens, UniProt Q99705); assay: Late-stage fluorescence-based counterscreen for antagonists of the G-protein coupled receptor 7 (GPR7): cell-based dose response assay to identify antagonists of the melanin-concentrating hormone receptor 1 (MCHR1) Set 6.; format: functional
Chain of Melanin-concentrating hormone receptor 1 (Q99705 whole entry): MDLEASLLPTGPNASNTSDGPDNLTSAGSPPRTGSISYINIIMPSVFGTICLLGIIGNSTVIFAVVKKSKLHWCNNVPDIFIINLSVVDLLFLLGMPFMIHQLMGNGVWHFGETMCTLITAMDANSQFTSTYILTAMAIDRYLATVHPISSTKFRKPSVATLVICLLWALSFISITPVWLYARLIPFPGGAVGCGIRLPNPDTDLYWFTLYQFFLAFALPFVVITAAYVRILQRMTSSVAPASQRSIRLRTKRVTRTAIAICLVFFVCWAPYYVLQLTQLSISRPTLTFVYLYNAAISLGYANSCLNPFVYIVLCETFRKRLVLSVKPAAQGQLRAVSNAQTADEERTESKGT

Chain of Mitochondrial peptide methionine sulfoxide reductase (P54149 whole entry): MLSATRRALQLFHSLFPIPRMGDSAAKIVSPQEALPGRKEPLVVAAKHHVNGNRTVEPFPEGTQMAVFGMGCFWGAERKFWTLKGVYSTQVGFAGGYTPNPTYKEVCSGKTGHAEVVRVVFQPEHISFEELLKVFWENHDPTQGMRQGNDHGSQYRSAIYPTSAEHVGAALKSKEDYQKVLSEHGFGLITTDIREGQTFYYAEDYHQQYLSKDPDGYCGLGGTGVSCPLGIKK
Chain of Potassium voltage-gated channel subfamily KQT member 2 (O88943 whole entry): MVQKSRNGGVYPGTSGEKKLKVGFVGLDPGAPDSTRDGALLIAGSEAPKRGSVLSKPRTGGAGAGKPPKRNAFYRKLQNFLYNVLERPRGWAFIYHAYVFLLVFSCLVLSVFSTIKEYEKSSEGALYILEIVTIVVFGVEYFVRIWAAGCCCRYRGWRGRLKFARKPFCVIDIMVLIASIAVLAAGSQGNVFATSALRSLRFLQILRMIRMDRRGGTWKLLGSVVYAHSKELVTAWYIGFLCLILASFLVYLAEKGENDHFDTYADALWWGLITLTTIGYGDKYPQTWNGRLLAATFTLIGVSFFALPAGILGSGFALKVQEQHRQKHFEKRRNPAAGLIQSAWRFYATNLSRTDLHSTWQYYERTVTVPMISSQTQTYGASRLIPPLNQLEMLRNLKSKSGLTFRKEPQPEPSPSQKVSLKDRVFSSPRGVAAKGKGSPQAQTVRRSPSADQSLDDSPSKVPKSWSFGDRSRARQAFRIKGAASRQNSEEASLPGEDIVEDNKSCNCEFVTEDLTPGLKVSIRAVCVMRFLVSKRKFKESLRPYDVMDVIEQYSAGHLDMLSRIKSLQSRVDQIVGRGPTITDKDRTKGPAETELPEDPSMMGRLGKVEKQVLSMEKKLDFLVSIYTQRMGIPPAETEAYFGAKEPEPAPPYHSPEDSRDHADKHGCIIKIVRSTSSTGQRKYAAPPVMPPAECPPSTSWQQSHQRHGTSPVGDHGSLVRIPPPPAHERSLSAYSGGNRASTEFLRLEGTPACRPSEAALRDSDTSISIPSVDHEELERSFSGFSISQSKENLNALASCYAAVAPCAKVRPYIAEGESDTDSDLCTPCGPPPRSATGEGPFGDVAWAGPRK

With `CCCCc1n(C)c2ccccc2[n+]1CC(=O)c1ccc(Cl)cc1` the EC50 [1] was 9.58 µM (active).
In the case of `CCN(CC)S(=O)(=O)c1ccc(N2CCOCC2)c(NC(=O)COc2ccccc2)c1`, the IC50 [2] is reported as 2.96 µM (active).
With `CCN(CC)S(=O)(=O)c1cnccc1N1CCN(c2cccc(Cl)c2)CC1` the EC50 [1] was 24.7 µM (active), the EC50 [3] was > 60 µM (not active) and the EC50 (cells) was 0.268 µM (active). The EC50 [4] was < 0.1 µM (active).
For `C[n+]1c(-c2ccccc2)cc2c(=Cc3ccccc3)c3ccccc3n21`, the IC50 [5] was 58.9 µM (active), the CC50 [6] was 26.3 µM (active) and the EC50 [7] was > 104 µM (inactive). For the same compound, the IC50 [8] was > 128 µM (inactive).
For `Fc1ccc(-c2nc(/C=C/c3ccccc3)no2)cc1`, the IC50 [9] was 33 µM (active), the IC50 [10] was 11.7 µM (active) and the IC50 (Caspase-3 [11]) was 37 µM (active). For the same compound, the IC50 [12] was 32 µM (active), the IC50 [13] was 14 µM (active) and the IC50 [14] was 11.1 µM (active). The IC50 (Caspase-3 [15]) was 33.8 µM (active) and the IC50 [16] was 11.7 µM (active).
In the case of `COc1cc(/C=C(/C#N)c2nc(-c3ccc(C)cc3)no2)ccc1OCc1cccc(C(F)(F)F)c1`, the IC50 [10] is reported as > 99 µM (inactive), the IC50 [14] is reported as > 99 µM (inactive) and the IC50 (Caspase-3 [15]) is reported as > 99 µM (inactive). For the same compound, the IC50 [16] was > 99 µM (inactive).
In the case of `COc1ccc(Oc2c(Cl)cnn(CC(=O)N3c4ccccc4CC3C)c2=O)cc1` (stereo not drawn), the IC50 [17] is reported as 0.781 µM (active).
